Results on 8 compounds are retold here after patent US5462958A, “Benzene derivatives and method of treating arteriosclerosis with benzene derivatives” (Eisai Co., Ltd., priority 1992, dated 1995).

Holding throughout (assay type): biochemical
Test [1] deals with T1, ACAT (Oryctolagus cuniculus, UniProt A0A5F9CPP4).
T1 construct: supernatant of homogenate of the arterial wall of a rabbit; from tissue; host or cells: supernatant of homogenate of rabbit arterial wall
T1 sequence (A0A5F9CPP4 1-555): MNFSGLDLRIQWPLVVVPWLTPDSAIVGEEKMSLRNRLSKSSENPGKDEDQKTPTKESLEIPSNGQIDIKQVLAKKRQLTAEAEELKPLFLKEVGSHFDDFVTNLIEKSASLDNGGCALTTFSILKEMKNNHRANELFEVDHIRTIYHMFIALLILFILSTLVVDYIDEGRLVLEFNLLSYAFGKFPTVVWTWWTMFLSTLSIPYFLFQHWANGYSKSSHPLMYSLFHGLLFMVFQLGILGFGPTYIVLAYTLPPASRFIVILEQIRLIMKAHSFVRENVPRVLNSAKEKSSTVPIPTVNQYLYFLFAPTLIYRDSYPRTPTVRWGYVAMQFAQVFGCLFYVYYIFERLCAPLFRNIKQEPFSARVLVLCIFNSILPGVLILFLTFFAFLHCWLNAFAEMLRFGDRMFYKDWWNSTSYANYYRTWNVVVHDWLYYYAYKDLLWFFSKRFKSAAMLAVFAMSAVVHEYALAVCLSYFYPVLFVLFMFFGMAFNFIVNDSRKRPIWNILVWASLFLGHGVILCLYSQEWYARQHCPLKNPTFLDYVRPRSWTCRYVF
As to the kind of experiment: ACAT-inhibitory activity in vitro, supernatant of homogenate of the arterial wall of a rabbit (acylation of cholesterol with radiolabeled oleoyl-CoA). Here is the method: (§1) Representative compounds according to the present invention were examined for ACAT-inhibitory activity according to the in-vitro test method described in Journal of Lipid Research, vol. 24, pp. 1049-1059 (1983) by F. J. Field and S. N. Mathur.
(§2) The inhibitory activity of a test compound against the acylation, which was based on the inhibitory activity of the test compound against the enzyme which catalyzes the acylation of cholesterol with oleoyl-CoA, was evaluated by using one of the supernatant of homogenate of the arterial wall of a rabbit, the microsome of the small intestine of a rat and the supernatant of homogenate of the epithelial cell (CaCO2) resulting from human colon cancer as an enzyme source, determining the amount of a radioisotope-labeled cholesterol oleate made from a radiolabeled oleoyl-CoA and (free) cholesterol and comparing the result of the case when a test compound was added with the result of control (the case when no test compound was added).
(§3) The data which are given in Table 1 are IC50 values, i.e., the concentrations of test compounds necessary for inhibiting 50% of the enzymatic activity of ACAT.

The test system of test [2] is ACAT. As to the kind of experiment: ACAT-inhibitory activity in vitro, supernatant of homogenate of the epithelial cell (CaCO2) resulting from human colon cancer (acylation of cholesterol with radiolabeled oleoyl-CoA). Here is the method: as §1, §2, §3
In test [3] the target is T2, ACAT (Rattus norvegicus, UniProt Q7TQM4).
T2 construct: the microsome of the small intestine of a rat; from tissue; host or cells: microsomes of rat small intestine
T2 sequence (Q7TQM4 1-524): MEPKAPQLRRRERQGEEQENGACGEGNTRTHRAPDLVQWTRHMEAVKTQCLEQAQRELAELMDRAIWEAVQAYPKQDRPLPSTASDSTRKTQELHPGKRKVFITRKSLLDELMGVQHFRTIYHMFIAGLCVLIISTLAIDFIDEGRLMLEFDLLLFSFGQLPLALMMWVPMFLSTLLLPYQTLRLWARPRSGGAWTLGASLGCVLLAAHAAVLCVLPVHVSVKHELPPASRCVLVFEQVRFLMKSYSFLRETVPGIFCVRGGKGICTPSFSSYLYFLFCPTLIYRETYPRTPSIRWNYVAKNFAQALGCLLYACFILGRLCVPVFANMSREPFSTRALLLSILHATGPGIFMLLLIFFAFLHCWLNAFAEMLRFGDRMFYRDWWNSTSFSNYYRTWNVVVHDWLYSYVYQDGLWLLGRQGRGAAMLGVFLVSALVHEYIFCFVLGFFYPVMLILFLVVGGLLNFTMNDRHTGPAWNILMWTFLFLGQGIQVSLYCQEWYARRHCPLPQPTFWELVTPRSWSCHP
As to the kind of experiment: ACAT-inhibitory activity in vitro, microsome of the small intestine of a rat (acylation of cholesterol with radiolabeled oleoyl-CoA). On the procedure: as §1, §2, §3

Broadly, the IC50 is the concentration at which inhibition is half-maximal. High values mean weaker potency in that assay, low ones greater potency in that assay. The compound `CCCCNC(=O)Nc1c(C)cc(O)cc1OCCCn1cnc(-c2ccccc2)c1CC` [Example 1, N-Butyl-N'-[2-[3-(5-ethyl-4-phenyl-1H-imidazol-1-yl)propoxy]-4-hydroxy-6-methylphenyl]urea] came in with an IC50 against ACAT [1] of 580 nM.

As for `CCCCNC(=O)Nc1c(C)cccc1OCCCn1cnc(-c2ccc(O)cc2)c1CC` [Example 2, N-Butyl-N'-[2-[3-[5-ethyl-4-(4-hydroxyphenyl)-1H-imidazol-1-yl]propoxy]-6-methylphenyl]urea], the IC50 with ACAT [2] was 1000 nM; against ACAT [1] it was 6900 nM.

For `CCCCNC(=O)Nc1c(C)cccc1OCCCn1cnc(-c2ccccc2)c1C(C)O` (centres unmarked) [Example 5, N-Butyl-N'-[2-[3-[5-(1-hydroxyethyl)-4-phenyl-1H-imidazol-1-yl]propoxy]-6-methylphenyl]urea], the IC50 against ACAT [3] amounted to 150 nM; in the test with ACAT [2], 170 nM; on ACAT [1] it was 850 nM.

Compound `CCc1c(-c2ccccc2)ncn1CCCOc1cccc(C)c1NC(=O)NCCCCO` [Example 6, N-(4-Hydroxybutyl)-N'-[2-[3-(5-ethyl-4-phenyl-1H-imidazol-1-yl)propoxy]-6-methylphenyl]urea] yielded an IC50 against ACAT [1] of 3800 nM.

In turn, `CCc1c(-c2ccccc2)ncn1CCCOc1cccc(C)c1NC(N)=O` [Example 8, N-[2-[3-(5-Ethyl-4-phenyl-1H-imidazol-1-yl)propoxy]-6-methylphenyl]urea] displayed an IC50 in the test with ACAT [2] of 3500 nM.

On to `CCCCNC(=O)Nc1c(CO)cccc1OCCCn1cnc(-c2ccccc2)c1CC` [Example 9, N-Butyl-N'-[2-[3-(5-ethyl-4-phenyl-1H-imidazol-1-yl)propoxy]-6-hydroxymethylphenyl]urea], for which the figures for the IC50 on ACAT [3], in the test on ACAT [2] and on ACAT [1] were 84 nM, 320 nM and 700 nM, respectively.

On to `CCc1c(-c2ccccc2)ncn1CCCOc1cccc(C)c1NC(=O)NCCC(C)O` (centres unmarked) [Example 10, N-(3-Hydroxybutyl)-N'-[2-[3-(5-ethyl-4-phenyl-1H-imidazol-1-yl)propoxy]-6-methylphenyl]urea], for which the IC50 on ACAT [3] came out at 4200 nM; with ACAT [2], 480 nM; on ACAT [1], 1000 nM.

For `CCCCNC(=O)Nc1c(OCCCn2cnc(-c3ccccc3)c2CC)ccc(O)c1C` [Example 11, N-Butyl-N'-[2-[3-(5-ethyl-4-phenyl-1H-imidazol-1-yl)propoxy]-5-hydroxy-6-methylphenyl]urea], the results for the IC50 against ACAT [3], in the test with ACAT [2] and at ACAT [1] were 68 nM, 100 nM and 260 nM, respectively.
